For assay [1], the system named is acute myeloid leukemia (AML) cell lines. The conditions noted are these: in vitro system; cited from earlier work.
Assay [2] concerns IL-1β production in CD14^+ cells. The assay is described as follows: LPS stimulation-induced IL-1β production in CD14^+ cells. The assay is classed as cell-based, human. The conditions noted are these: for IC50: Homo sapiens, 72 h, LPS 500 ng/mL, 3 days. Here is the method:
Cryopreserved PBMCs were quickly thawed in a 37° C. thermostat and added to a tube containing medium. After centrifugation (at room temperature at 300 g for 10 minutes) to remove the supernatant, the cells were suspended again in the medium, followed by counting the number of viable cells. The cell suspension was centrifuged (at room temperature at 300 g for 10 minutes) to remove the supernatant, followed by addition of MACS Buffer to suspend the cells, to which Human CD14 MicroBeads were further added. After being allowed to stand on ice for 15 minutes, the cell suspension was diluted with MACS Buffer and centrifuged (at room temperature at 300 g for 10 minutes) to remove the supernatant. MACS Buffer was added to the tube, and the cells were suspended and then applied to a separatory column to separate CD14^+ cells. The CD14^+ cell fraction was diluted with the medium and then centrifuged (at room temperature at 300 g for 10 minutes). The supernatant was removed and the cells were suspended in the medium (1 mL), followed by counting the number of viable cells. The cell suspension was adjusted with the medium to 2.4×10^5 or 3×10^5 cells/mL and seeded in a 96-well plate (2.4×10^4 cells/well), which was then allowed to stand in a CO2 incubator for 1 to 2 hours.
The culture supernatants collected in 1.2.10 were quantified for IL-1β using Human IL-1β DuoSet ELISA.

Another assay relates to IL-1β production. Description: CRS toxicity evaluation system using CAR-T cells: IL-1β. It counts as cell-based, human. The conditions noted are these: for IC50: Homo sapiens, Monocyte, CAR-T cells, target cells and monocytes, 72 hours. As to the method:
The supernatants were collected at 72 hours after the initiation of culture, and various cytokines in each supernatant were measured by FACS multiplex assay.

Assay [3] relates to MCP-1 production from CD14^+ cells. The assay is described as follows: LPS stimulation-induced MCP-1 production in CD14^+ cells. The assay is classed as cell-based. The conditions noted are these: Homo sapiens, 72 h, LPS 3 ng/mL, 3 days. As to the method:
Cryopreserved PBMCs were quickly thawed in a 37° C. thermostat and added to a tube containing medium. After centrifugation (at room temperature at 300 g for 10 minutes) to remove the supernatant, the cells were suspended again in the medium, followed by counting the number of viable cells. The cell suspension was centrifuged (at room temperature at 300 g for 10 minutes) to remove the supernatant, followed by addition of MACS Buffer to suspend the cells, to which Human CD14 MicroBeads were further added. After being allowed to stand on ice for 15 minutes, the cell suspension was diluted with MACS Buffer and centrifuged (at room temperature at 300 g for 10 minutes) to remove the supernatant.
MACS Buffer was added to the tube, and the cells were suspended and then applied to a separatory column to separate CD14^+ cells. The CD14^+ cell fraction was diluted with the medium and then centrifuged (at room temperature at 300 g for 10 minutes). The supernatant was removed and the cells were suspended in the medium (1 mL), followed by counting the number of viable cells. The cell suspension was adjusted with the medium to 2.4×10^5 or 3×10^5 cells/mL and seeded in a 96-well plate (2.4×10^4 cells/well), which was then allowed to stand in a CO2 incubator for 1 to 2 hours.
The collected culture supernatants were quantified for MCP-1 using Human CCL2/MCP-1 DuoSet ELISA.

Assay [4] concerns IL-6, IL-8 and other inflammatory cytokines. The conditions noted are these: phase I study, LPS loading; cited from earlier work.
The test system of assay [5] is VEGF production from macrophages. Description: LPS stimulation-induced VEGF production in macrophages. The assay is classed as cell-based, human. Here is the method:
CD14^+ cells were cultured in 20 ng/mL M-CSF-containing RPMI medium at 37° C. for 5 days to induce differentiation into macrophages (during which the medium was replaced once every two days with fresh 20 ng/mL M-CSF-containing RPMI medium). […] The macrophages were then stimulated with LPS (final concentration: 100 ng/mL) or RPMI medium alone at 37° C. for 3 days, followed by collecting the culture supernatants. The collected culture supernatants were quantified for VEGF using Human VEGF DuoSet ELISA.

Each structure is given as a SMILES string. Where a name gives a salt, the structure may show the parent alone. Some results are limits rather than exact numbers.

As a reminder, the IC50 is the midpoint of a concentration-inhibition curve. `CCOC(=O)[C@H](Cc1ccccc1)NC(=O)c1cc(Cl)c(OCCN2CCN(C)CC2)c(Cl)c1O` [JTE-607, (−)-ethyl N-{3,5-dichloro-2-hydroxy-4-[2-(4-methylpiperazin-1-yl)ethoxy]benzoyl}-L-phenylalaninate dihydrochloride]: in assay [1], the “autoproliferation of AML cell lines” value was “selectively suppress the autoproliferation”. Besides, the IC50 is 3.45 nM in assay [2]; 359 nM in the assay with IL-1β production; 21.3 nM in assay [3]; 204 nM in assay [5] (Homo sapiens, Macrophage, 72 h, read-out: IC50 value, VEGF). Moreover, in assay [4], the “elevation of C-reactive protein (CRP) levels” value was “suppress the elevation of C-reactive protein (CRP) levels in a dose-dependent manner”. For the same molecule, in assay [4], the “production of IL-6, IL-8 and other inflammatory cytokines” value is “suppress the production of IL-6, IL-8 and other inflammatory cytokines”. Moreover, the “effect on VEGF production from macrophages” value in assay [5] (Macrophages, LPS) is on record as “tended to suppress VEGF production from macrophages, but its effect was marginal”.

With `C[C@]12C=CC(=O)C=C1CC[C@@H]1[C@@H]2[C@@H](O)C[C@@]2(C)[C@H]1CC[C@]2(O)C(=O)CO` [PSL, Prednisolone], the results for the concentration for half-maximal inhibition (IC50) (in assay [2]; in the assay with IL-1β production; in assay [3]) were over 30000 nM, over 100000 nM and 6600 nM, respectively. For the same molecule, the “suppressive effect on IL-1β production” value in assay [2] (LPS) is “no suppressive effect”. Also, the “suppressive effect on IL-1β” value with IL-1β production (CRS toxicity evaluation system using CAR-T cells) is “no suppressive effect”.

The values are drawn from US11744830B2, “Ameliorative agent for cytokine release syndrome and so on” (TORII PHARMACEUTICAL CO., LTD., priority 2018, dated 2023).
